Measured values taken from US9278134B2, “Dual functioning ionic liquids and salts thereof” (priority 2008, dated 2016).

How the values were obtained:
Type in all cases: physicochemical
[1] = Viscosity of propantheline p-toluenesulfonate (PtTos)/water composites; settings: * instrument limit
Excerpt: (§1) Viscosity, conductivity and ΔW values for various propantheline p-toluenesulfonate (PtTos)/water composites.

[2] = Conductivity of propantheline p-toluenesulfonate (PtTos)/water composites
Excerpt: as §1

[3] = Walden plot: ΔW / degree of ionicity; settings: for degree of ionicity (ionized): estimated from the Walden plot (FIG. 7)
Excerpt: Many examples of liquid organic salts are far from fully ionized. Instead, they form ion pairs and aggregates of ions in the liquid state and are better described as Liquid Ion Pairs than “Ionic Liquids”. The distinction between these states can be made on the basis of the behavior of the transport property data when plotted in a Walden plot. The Walden plot is a graph of log equivalent conductivity (corrected for molar volume) vs. log fluidity and thus may be used to estimate the degree of association cations and anions (as correlated motion of cation and anion clusters). […] Liquid Ion Pairs lie beyond this region, i.e., more than one order of magnitude away from the Ideal line. Such liquid salts are less than 10% ionized. Examples of such liquid salts of therapeutic ions include propanthaline tosylate which is about 1% ionized, as estimated from the Walden plot (FIG. 7).
With addition of 25 weight % water, ΔW value decreased. This is true for all of the propantheline p-toluenesulfonate/water systems studied.

SMILES: CC(C)[N+](C)(CCOC(=O)C1c2ccccc2Oc2ccccc21)C(C)C [PtTos pure, Propantheline p-Toluenesulfonate]
- Viscosity (mPa · s) ± 1% [1]: >2000* mPa · s
- Conductivity (S cm^−1) [2]: 5.41 × 10^−7 S cm^−1
- distance below the reference line in the Walden plot ([3]; FIG. 7): 2 log units
- ΔW (distance form the ideal line) ([3]; Walden plot, PtTos/water composites): 2.0
- degree of ionicity (ionized) [3]: approximately 1%
- degree of ionicity (ionized) ([3]; listed as propanthaline tosylate): about 1%
